From paper PMC8036666, “Biological and Physico-Chemical Characteristics of Arginine-Rich Peptide Gemini Surfactants with Lysine and Cystine Spacers” (International Journal of Molecular Sciences, 2021)

Legend:
[1] = test system: Pseudomonas aeruginosa ATCC 9027; parameters: method as in PMID 31581500; settings: biofilm, previous study ref 65; cited from earlier work
[2] = test system: Staphylococcus aureus ATCC 25923; parameters: method as in PMID 31581500; settings: planktonic culture, previous study ref 65; cited from earlier work
[3] = test system: E. coli ML-35 (ATCC 43827)
Source text: (§1) The permeabilization of E. coli ML-35 (ATCC 43827) membranes was studied for selected compounds (A4, B2, C2, B7, and C7) to compare their activity and membrane disruption over time. […] For OM and IM permeabilization, CENTA and ONPG were used, respectively. The permeabilization of OM causes the release of periplasmic β-lactamase, which hydrolyzes CENTA’s β-lactam ring to form a chromophore, 2-nitro-5-thiobenzoate (TNB) anion, while the disruption of IM results in the release of β-galactosidase, which hydrolyzes ONPG into galactose and a chromophore, ortho-nitrophenol (ONP). Both products of enzymatic reaction absorb light at 405 nm.
The MICs were determined by the broth microdilution method according to the Clinical and Laboratory Standard Institute guidelines. For this purpose, initial inoculums of bacteria (5 × 10^5 CFU/mL) in MHB and yeasts (2 × 10^3 CFU/mL) in RPMI-1640 with 2% D-glucose were exposed to the ranging concentration of lipopeptides (0.5–256 μg/mL) and incubated at 37 °C for 18 h and 24 h, respectively. The experiments were conducted on 96-well microtiter polystyrene plates (Kartell, Noviglio, Italy). The growth was assessed visually after incubation, and the MIC was assumed as the lowest peptide concentration at which a noticeable growth of microorganisms was inhibited. All experiments were conducted in triplicate.
Inner and outer membranes permeabilization kinetics were evaluated using Escherichia coli ML-35 (ATCC 43827) and chromogenic substrates—CENTA (BioVision, Milpitas, CA, USA) and o-nitrophenyl-β-d-galactopyranoside (ONPG) (Sigma-Aldrich, Steinheim, Germany), as described previously. To examine OM permeabilization, CENTA was used as a β-lactamase substrate. In effect of OM permeabilization, the enzyme can hydrolyze CENTA’s β-lactam ring. The resulting color change (2-nitro-5-thiobenzoate anion, TNB^-) could be measured spectrophotometrically at 405 nm. The IM permeabilization was monitored with ONPG, which is a chromogenic β-galactosidase substrate. The product of this reaction ([…]) was measured spectrophotometrically at 405 nm (Multiskan GO Microplate Spectrophotometer, Thermo Fisher Scientific, Vantaa, Finland). […] Bacteria were incubated in lysogeny broth medium (LB; Biocorp, Warszawa, Poland) for 24 h at 37 °C. Subsequently, the cells were diluted in a fresh LB medium and incubated at 37 °C up to a mid-log phase (ca. 3 h). The culture was centrifuged (3 min, 1100× g) and rinsed twice with a PBS. The bacteria were resuspended in PBS up to a concentration of 5 × 10^6 CFU/mL. The final concentration of ONPG and CENTA was 1.5 mM and 0.15 mM, respectively. The ONPG/CENTA in PBS (Sigma-Aldrich, Steinheim, Germany) was used as a negative control. […] Readings were taken every 15 min for 3 h at 37 °C [125, 142, 143, 144]. Experiments were performed in triplicate on 96-well flat bottom microtiter polystyrene plates.

[4] = test system: E. coli ML-35 (ATCC 43827); assay: Outer membrane (OM) permeabilization kinetics, CENTA; type: cell-based, Escherichia coli; settings: over 3 h, 2 µg/mL (MIC)
Source text: as §1
Inner and outer membranes permeabilization kinetics were evaluated using Escherichia coli ML-35 (ATCC 43827) and chromogenic substrates—CENTA (BioVision, Milpitas, CA, USA) and o-nitrophenyl-β-d-galactopyranoside (ONPG) (Sigma-Aldrich, Steinheim, Germany), as described previously. To examine OM permeabilization, CENTA was used as a β-lactamase substrate. In effect of OM permeabilization, the enzyme can hydrolyze CENTA’s β-lactam ring.

## C12-KKC-NH2 [Compound C12-KKC-NH2]
[1]
  MBEC P. aeruginosa ATCC 9027: > 512

## C14-KKC-NH2 [Compound C14-KKC-NH2]
[2]
  MIC S. aureus ATCC 25923: 32 µg/mL

## polymyxin B [reference compound]
[3]
  MIC E. coli ML-35 (ATCC 43827): 2 µg/mL
[4]
  increase of absorbance at 405 nm, OM permeabilization: ca. 0.25 AU
